{"source": "paper PMC5976465", "about": "“Triptolide, a HSP90 middle domain inhibitor, induces apoptosis in triple manner” (Oncotarget, 2018)", "key": {"HSP90β [1]": {"biological_target": "T1, HSP90β (Homo sapiens, UniProt P08238, C366S)", "T1 construct": "gene HSP90AB1; recombinant HSP90β C366S", "T1 sequence (P08238 2-724 C366S)": "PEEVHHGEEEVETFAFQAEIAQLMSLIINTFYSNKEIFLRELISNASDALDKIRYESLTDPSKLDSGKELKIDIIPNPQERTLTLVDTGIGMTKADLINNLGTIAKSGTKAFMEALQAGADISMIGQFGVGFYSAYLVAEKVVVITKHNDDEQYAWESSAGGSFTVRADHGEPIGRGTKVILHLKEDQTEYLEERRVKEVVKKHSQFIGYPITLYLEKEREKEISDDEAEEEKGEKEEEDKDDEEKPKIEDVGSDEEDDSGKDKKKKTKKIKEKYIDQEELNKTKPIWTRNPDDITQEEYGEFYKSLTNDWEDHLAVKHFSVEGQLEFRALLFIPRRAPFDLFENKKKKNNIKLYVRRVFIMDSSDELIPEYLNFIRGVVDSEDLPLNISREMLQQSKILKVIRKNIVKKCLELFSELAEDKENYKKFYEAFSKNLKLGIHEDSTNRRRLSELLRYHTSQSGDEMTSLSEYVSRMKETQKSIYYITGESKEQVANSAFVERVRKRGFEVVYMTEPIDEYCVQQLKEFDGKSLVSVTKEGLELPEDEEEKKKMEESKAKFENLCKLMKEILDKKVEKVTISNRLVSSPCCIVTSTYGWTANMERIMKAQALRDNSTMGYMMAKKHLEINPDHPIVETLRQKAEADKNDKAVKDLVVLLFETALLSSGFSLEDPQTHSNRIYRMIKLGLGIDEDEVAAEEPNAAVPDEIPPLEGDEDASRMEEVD", "assay": "colorimetric ATPase assay and MANT-ADP binding assay at […] TL", "assay_type": "biochemical"}, "HSP90β [2]": {"biological_target": "T2, HSP90β (Homo sapiens, UniProt P08238)", "T2 construct": "gene HSP90AB1; recombinant HSP90β expressed in BL21(DE3) from pET52b", "T2 sequence (P08238 2-724)": "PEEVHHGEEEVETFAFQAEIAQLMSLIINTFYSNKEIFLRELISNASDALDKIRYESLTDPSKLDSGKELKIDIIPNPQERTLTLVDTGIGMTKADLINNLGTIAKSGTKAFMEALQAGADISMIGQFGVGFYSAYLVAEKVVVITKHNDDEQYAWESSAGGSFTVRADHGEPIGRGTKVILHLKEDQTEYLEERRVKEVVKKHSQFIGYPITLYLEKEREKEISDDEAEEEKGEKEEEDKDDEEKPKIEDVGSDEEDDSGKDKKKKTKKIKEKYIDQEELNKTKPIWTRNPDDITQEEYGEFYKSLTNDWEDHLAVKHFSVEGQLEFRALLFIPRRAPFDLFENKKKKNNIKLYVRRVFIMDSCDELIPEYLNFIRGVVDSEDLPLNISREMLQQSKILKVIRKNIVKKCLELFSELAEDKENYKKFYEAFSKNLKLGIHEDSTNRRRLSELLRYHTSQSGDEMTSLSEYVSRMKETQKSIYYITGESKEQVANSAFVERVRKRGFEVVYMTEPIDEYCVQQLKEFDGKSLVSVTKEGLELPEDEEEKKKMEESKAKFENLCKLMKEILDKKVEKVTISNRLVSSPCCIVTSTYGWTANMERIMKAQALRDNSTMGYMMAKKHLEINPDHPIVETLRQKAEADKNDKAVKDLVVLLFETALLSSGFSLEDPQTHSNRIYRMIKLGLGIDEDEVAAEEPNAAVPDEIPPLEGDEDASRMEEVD", "assay": "colorimetric ATPase assay with recombinant protein; also MANT-ADP binding and CDC37 pulldown", "assay_type": "biochemical"}}}
{"smiles": "CC(C)[C@]12O[C@H]1[C@@H]1O[C@]13[C@]1(O[C@H]1C[C@H]1C4=C(CC[C@@]13C)C(=O)OC4)[C@@H]2O", "note": "[TL, Triptolide]", "values": [{"measurement": "colorimetric ATPase assay and MANT-ADP binding assay at 50 μM TL", "setting": "HSP90β [1]", "value": "TL exhibited a similar inhibitory effect on both HSP90β^WT and HSP90β^C366S"}, {"measurement": "IC50", "setting": "HSP90β [2]", "value": 29.9, "unit": "µM"}]}
